{
  "source": "patent US20260083731A1",
  "about": "“METHODS OF TREATING UVEAL MELANOMA WITH A PKC INHIBITOR” (IDEAYA BIOSCIENCES, INC., priority 2022, published 2026)",
  "key": {"[1]": {"system": "ocular tumor (uveal melanoma)", "assay": "Clinical outcome of the affected eye in treated uveal melanoma patients", "assay_type": "in vivo, human", "experimental": "(§1) A patient (patient 2) (enrolled in NCT02601378) with metastatic disease to liver and peritoneum at the time of diagnosis, and with primary lesion intact (intact ocular tumor) was treated with Compound 1 (300 mg BID).\nA patient (patient 5) (enrolled in NCT05187884) was treated with Compound 1 (300 mg BID) for about 28 days. A 13% ocular tumor reduction in maximal apical height by ocular ultrasound was observed (after about 28 days administration of Compound 1). The patient is continuing on treatment to maximal benefit up to 6 months prior to planned enucleation. The patient was continuing treatment with Compound 1 (300 mg BID) for additional about 3 months (in addition to about 28 days as described above), and a 24% ocular tumor reduction in maximal apical height by ocular ultrasound was observed. […] The patient continues on adjuvant therapy for potentially up to 6 months.\nA patient (patient 6) (enrolled in NCT05187884) was treated with Compound 1 (300 mg BID) for about 56 days, prior to the planned interventional procedure (e.g. enucleation). A 11% ocular tumor reduction in maximal apical height and 23% in Largest Basal Diameter by ocular ultrasound was observed. The patient is continuing on treatment to maximal benefit up to 6 months prior to planned enucleation. The patient continued treatment with Compound 1 (300 mg BID) for about 2 months (in addition to the 56 days as described above), and a 24% ocular tumor reduction in maximal apical height by ocular ultrasound was observed. The patient continued treatment with Compound 1 (300 mg BID) for about 1 month (in addition to about 4 months described above), and a 45% ocular tumor reduction in maximal apical height and 63% reduction in Largest Basal Diameter by ocular ultrasound was observed."}, "[2]": {"system": "ocular tumor (uveal melanoma)", "assay": "Neoadjuvant treatment of uveal melanoma patients, ocular tumor size by ocular ultrasound", "assay_type": "in vivo, human", "details": "vs baseline", "text": "Patients can meet all of the following inclusion criteria: • Patient must be at least 18 years of age. • Patient is able to provide written, informed consent before initiation of any study related-procedures, and is able, in the opinion of the investigator, to comply with all the requirements of the study. • Primary diagnosis of uveal melanoma as clinically determined by the treating investigator planned to undergo enucleation (prior plaque brachytherapy is permitted) • Life expectancy >3 months. • Able to safely swallow orally administered medication. • Patients with a prior history of or clinically stable concurrent malignancy are eligible for enrolment provided the malignancy is clinically insignificant, no treatment is required, and the patient is clinically stable. • Patients with a history of squamous or basal cell carcinoma of the skin or carcinoma in the situ of the cervix may be enrolled. • Patients with prostate cancer with an elevated PSA not requiring treatment may be enrolled. • Patient has Eastern Cooperative Oncology Group (ECOG) performance status 0-1 (Karnofsky 70%). • Patient has adequate organ function at screening: • Absolute neutrophil count ≥1500/mm3 without the use of hematopoietic growth factors • Platelet count ≥75,000/mm3 (must be at least 2 weeks post-platelet transfusion and not receiving platelet-stimulating agents) • Haemoglobin ≥8.0 g/dL (must be at least 2 weeks post-red blood cell transfusion and not receiving erythropoietic-stimulating agents) • Total bilirubin ≤1.5× the upper limit of normal (ULN).\nThe presence of any of the following can exclude a patient from being eligible for the study: • Previous treatment with a PKC inhibitor • Have adverse events (AEs) from prior anti-cancer therapy that have not resolved to Grade ≤1 except for alopecia, prior peripheral neuropathy, or anemia. Endocrinopathies resulting from previous immunotherapy are considered part of the medical history and not an AE. • Untreated or symptomatic malignant lesions in the central nervous system (CNS). • Known human immunodeficiency virus (HIV) or acquired immunodeficiency syndrome (AIDS)-related illness. • Active infection requiring therapy (except nail fungus), positive tests for Hepatitis B surface antigen (HBsAg) with detected Hepatitis B virus (HBV) DNA or positive Hepatitis C antibody with detected Hepatitis C virus (HCV) RNA. • Prior gastrectomy or upper bowel removal or any other gastrointestinal disorder or defect e.g., malabsorption disorder such as Crohn's disease or ulcerative colitis, that would interfere with absorption of Compound 1. • Patients who are receiving treatment with medications that cannot be discontinued prior to study entry and that are considered to be any of the following • known to be strong inducers or inhibitors of CYP3A4/5 • known to be substrates of CYP3A4/5, OAT3, OATP1B1, and MATE1/2-K with a narrow therapeutic index • Females who are pregnant or breastfeeding: • Women of childbearing potential must not be considering getting pregnant during the study. • Patients of reproductive potential (male & female) must practice an effective method of contraception during treatment and for 30 days following the last dose of Compound 1. […] If electrolytes are abnormal, they may be corrected, and baseline ECGs should be repeated. • Known to have previously received Compound 1 • Presence of any other condition that may increase the risk associated with study participation or may interfere with the interpretation of study results and, in the opinion of the investigator, would make the patient inappropriate for entry into the study.\nA patient (patient 1) (enrolled in NCT05187884) was treated with Compound 1 (300 mg BID) for 27 days, prior to potential planned interventional procedure comprising enucleation. A 22% ocular tumor reduction in maximal apical height by ocular ultrasound (after about 28 days administration of Compound 1) was observed prior to the planned interventional procedure. […]"}, "[3]": {"system": "ocular tumor (uveal melanoma)", "assay": "PET scan of metabolic activity of the ocular tumor (FDG avidity, SUV) in treated patients", "assay_type": "in vivo, human", "experimental": "as §1\nA patient (patient 4) (enrolled in NCT05187884) was treated with Compound 1 (300 mg BID) for about 28 days, prior to the planned interventional procedure (e.g., enucleation). A 31% ocular tumor reduction in maximal apical height by ocular ultrasound was observed (after about 28 days administration of Compound 1)."}, "[4]": {"system": "uveal melanoma cells harboring GNAQ mutations", "details": "by targeting PKC/ERK1/2 and PKC/NF-xB pathways; X. Wu et al. 2012; cited from earlier work"}, "[5]": {"details": "patient 6, 300 mg BID, about 4 months plus about 1 month"}, "[6]": {"details": "patient 6, 300 mg BID, about 56 days"}, "[7]": {"details": "patient 7, 300 mg BID, after about 84 days"}, "[8]": {"details": "patient 8, 300 mg BID, after about 84 days"}, "[9]": {"details": "patient 9, 300 mg BID, after about 56 days"}},
  "data": [
    {"smiles": "CC1(N)CCN(c2cccnc2NC(=O)c2nc(-c3ncccc3C(F)(F)F)cnc2N)CC1", "note": "[Compound 1]", "values": [
      {"measurement": "patient-reported visual symptoms in affected eye", "setting": "[1]; patient 2, 300 mg BID", "result": "improvement in visual symptoms in affected eye"},
      {"measurement": "eye outcome (plaque brachytherapy enabled instead of planned enucleation)", "setting": "[1]; patient 5, 300 mg BID neoadjuvant", "result": "the eye was preserved"},
      {"measurement": "eye outcome (plaque brachytherapy enabled instead of planned enucleation)", "setting": "[1]; patient 6, 300 mg BID neoadjuvant", "result": "the eye was preserved"},
      {"measurement": "ocular tumor reduction in maximal apical height by ocular ultrasound", "setting": "[2]; patient 1, 300 mg BID, after about 28 days", "result": 22, "unit": "%"},
      {"measurement": "ocular tumor reduction in maximal apical height by ocular ultrasound", "setting": "[2]; patient 3, 300 mg BID, after 28 days", "result": "~10", "unit": "%"},
      {"measurement": "ocular tumor reduction in maximal apical height by ocular ultrasound", "setting": "[2]; patient 4, 300 mg BID, after about 28 days", "result": 31, "unit": "%"},
      {"measurement": "ocular tumor reduction in maximal apical height by ocular ultrasound", "setting": "[2]; patient 5, 300 mg BID, about 28 days plus additional about 3 months", "result": 24, "unit": "%"},
      {"measurement": "ocular tumor reduction in maximal apical height by ocular ultrasound", "setting": "[2]; patient 5, 300 mg BID, after about 28 days", "result": 13, "unit": "%"},
      {"measurement": "ocular tumor reduction in maximal apical height by ocular ultrasound", "setting": "[2]; patient 6, 300 mg BID, 56 days plus about 2 months", "result": 24, "unit": "%"},
      {"measurement": "ocular tumor reduction in maximal apical height by ocular ultrasound", "setting": "[2]; [5]", "result": 45, "unit": "%"},
      {"measurement": "reduction in Largest Basal Diameter by ocular ultrasound", "setting": "[2]; [5]", "result": 63, "unit": "%"},
      {"measurement": "ocular tumor reduction in maximal apical height by ocular ultrasound", "setting": "[2]; [6]", "result": 11, "unit": "%"},
      {"measurement": "reduction in Largest Basal Diameter by ocular ultrasound", "setting": "[2]; [6]", "result": 23, "unit": "%"},
      {"measurement": "ocular tumor reduction in maximal apical height by ocular ultrasound", "setting": "[2]; [7]", "result": 14.3, "unit": "%"},
      {"measurement": "reduction in Largest Basal Diameter by ocular ultrasound", "setting": "[2]; [7]", "result": 15.2, "unit": "%"},
      {"measurement": "ocular tumor reduction in maximal apical height by ocular ultrasound", "setting": "[2]; [8]", "result": 28.5, "unit": "%"},
      {"measurement": "reduction in Largest Basal Diameter by ocular ultrasound", "setting": "[2]; [8]", "result": 19.4, "unit": "%"},
      {"measurement": "ocular tumor reduction in maximal apical height by ocular ultrasound", "setting": "[2]; [9]", "result": 4.0, "unit": "%"},
      {"measurement": "reduction in Largest Basal Diameter by ocular ultrasound", "setting": "[2]; [9]", "result": 2.1, "unit": "%"},
      {"measurement": "reduction in the metabolic activity of the ocular tumor (FDG avidity) by SUV, PET", "setting": "[3]; patient 2 (metastatic disease, intact ocular tumor), 300 mg BID, after about two weeks", "result": 74, "unit": "%"},
      {"measurement": "reduction in the metabolic activity of the ocular tumor (FDG avidity) by SUV, PET", "setting": "[3]; patient 4, 300 mg BID, after about one month", "result": 42, "unit": "%"}
    ]},
    {"smiles": "CN1CCN(c2nc(C3=C(c4c[nH]c5ccccc45)C(=O)NC3=O)c3ccccc3n2)CC1", "note": "[sotrastaurin]", "values": [
      {"measurement": "inhibition of growth of uveal melanoma cells harboring GNAQ mutations", "setting": "[4]", "result": "selectively inhibit the growth"}
    ]}
  ]
}
